The test system of series [1] is human breast carcinoma cell line MCF-7. The experiment in a line: MTT antiproliferative assay against MCF-7. The conditions noted are these: read-out: IC50 (anticancer activity against MCF-7 cell line). Type of series: cell-based. Here is the method: All the synthesised naphthalene-chalcone derivatives 3a–3t were evaluated for their anticancer activity by 3-[4,5-dimethylthiazole-2-yl]-2,5-diphenyltetrazolium bromide (MTT) assay method against human breast carcinoma cell line MCF-7. Cisplatin was used as a reference drug. […]. […]
culture, the culture medium was removed, and cells were incubated with tetrazolium dye [3-(4,5-dimethylthiazol-2-yl)-2,5-diphenyltetrazo-lium bromide (MTT) solution for 4 h. Then, the supernatant was removed and the precipitates (formazan crystal) were […]
dissolved in DMSO. […]
On the technique in general: Tetrazolium assays rely on reduction of a dye to a coloured formazan, in cell work by metabolically active cells.

For series [2], the system named is xenografted tumour. More on the design: method as in PMID 24308485. The settings on record: cited from earlier work.
The subject of series [3] is SW620 colon cancer cells. The arrangement: method as in PMID 25193463. The conditions noted are these: cited from earlier work.
Series [4] deals with MCF-7 cells. The experiment in a line: Cell cycle analysis by flow cytometry (PI). Type of series: cell-based, human. The conditions noted are these: 2.0 µM, 24 h. An excerpt: Many studies have reported that tubulin polymerisation inhibitors can arrest cancer cells in G2/M phase and lead to apoptosis[24]^,[25]. The potent tubulin polymerisation inhibitory activity of compound 3a promoted us to further investigate its cellular mechanisms of action in MCF-7 cancer cells by using flow cytometry analysis. In order to elucidate the molecular mechanism of compound 3a, we first studied its effect on cell cycle progression in MCF-7 cells. […] In contrast, after treatment of MCF-7 cells with compound 3a at concentrations of 2.0 µM, the accumulation of cancer cells was detected at G2/M phase by 5.5 folds compared to the control group, from 15.19% in the control group to 84.55% in the compound 3a treated group (Figure 4). […]
MCF-7 cells were seeded in 6-well plates and incubated at 37 °C for overnight and treatment with DMSO or compound 3a (0.5, 2.0 and 10.0 μM) for 24 h. The cells were washed twice with PBS, and incubated for 0.5 h at 37 °C in a PBS solution containing 1 mg/mL RNase A and propidium iodide (PI). C ell cycle was analyzed by flow cytometry (TASC240, USA).
A general note: Flow cytometry measures light scatter and fluorescence of single cells or particles in a stream.

Series [5] deals with MCF-7 cells. Briefly: Annexin V FITC/PI apoptosis assay. It is filed as cell-based, human. The settings on record: 2.0 µM, 24 h. The method, then:
To investigate whether compound 3a could induces apoptosis, the apoptotic effect of compound 3a and DMSO (control) were evaluated by an annexin V FITC/PI (AV/PI) dual staining assay. After treatment MCF-7 cells with compound 3a at the concentration of 2.0 µM for 24 h, the cells were labelled with the two dyes and analysed by flow cytometry. […] In addition, an increase in the early/primary apoptosis was also observed from 1.85% to 20.0% (Figure 4).
MCF-7 cells were grown in 6-well plates and treated with compound 3a (0.5, 2.0 and
10.0 μM) or DMSO for 24 h. After treatment, the cells were collected and stained with
PI (propidium iodide) for 20 min. Apoptosis was analyzed using a flow cytometer. […]

For series [6], the system named is tubulin. The experiment in a line: In vitro tubulin polymerisation inhibitory assay. Type of series: biochemical. The method, then:
1.3 In vitro tubulin polymerization assay
To evaluate the eﬀect of the compound 3a on tubulin assembly in vitro, varying
DMSO were incubated with purified tubulin protein in PEM buffer [100 mM PIPES
(1,4-Piperazinediethanesulfonic acid), 1 mM MgCl2, and 1 mM EGTA(ethylene glycol
tetraacetic acid)] containing 1 mM GTP and 5 % glycerol. […]

A short description of series [7]: in vitro. The settings on record: human.

These results are taken from PMC6882462 (Journal of Enzyme Inhibition and Medicinal Chemistry, 2019).

Read-outs that look alike come from different tables or passages of the source.

In turn, `COc1ccc2ccccc2c1C(=O)/C=C/c1ccc2ccccc2c1` [3f] gave a melting point of 107 to 109 °C. The IC50 in series [1] (Homo sapiens, MCF7, 48 h) came to 6.87 ± 0.26 µM.
`COc1ccc2ccccc2c1C(=O)/C=C/c1ccc(N(C)C)cc1` [3r] yielded a melting point of 147 to 148 °C. Besides, the 50% inhibitory concentration (IC50) in series [1] (Homo sapiens, MCF7, 48 h) came out at 8.91 ± 0.52 µM.
Regarding `COc1ccc(/C=C/C(=O)c2c(OC)ccc3ccccc23)cc1[N+](=O)[O-]` [3i], the melting point fell in the range of 157 to 159 °C. The half-maximal inhibitory concentration (IC50) in series [1] (Homo sapiens, MCF7, 48 h) came to 7.82 ± 0.35 µM.
For `COc1ccc(/C=C/C(=O)c2c(OC)ccc3ccccc23)cc1Br` [3g], in that order: 168 to 169 °C and 7.11 ± 0.4 µM.
For `COc1ccc2ccccc2c1C(=O)/C=C/c1cccs1` [3j] the same measures were 149 to 150 °C and more than 10 µM.
With `COc1ccc(C(=O)/C=C/c2cccc3ccccc23)c(O)c1` [HymnPro, 2-hydroxy-4-methoxy-2′,3′-benzochalcone], the “effect on xenografted tumour growth” value in series [2] was “suppressed xenografted tumour growth”.
Regarding `COc1ccc2ccccc2c1C(=O)/C=C/c1ccccc1F` [3m], in series [1] (Homo sapiens, MCF7, 48 h), the IC50 was 6.66 ± 0.27 µM.
Compound `COc1ccc2ccccc2c1C(=O)/C=C/c1ccccc1` [3n] showed a melting point of 142 to 144 °C. Further, in series [1] (Homo sapiens, MCF7, 48 h), the IC50 turned out to be 7.62 ± 0.36 µM.
As for `COc1ccc2ccccc2c1C(=O)/C=C/c1ccccc1Br` [3d], the melting point lay within 150 to 152 °C. For the same compound, the IC50 in series [1] (Homo sapiens, MCF7, 48 h) is 7.63 ± 0.45 µM.
For the compound `COc1cc(OC)c(/C=C/C(=O)c2c(O)ccc3ccccc23)c(OC)c1` [HMNC-74], the inhibition of clonogenicity result in series [3] is given as “strongly inhibited”.
Take `COc1cc(/C=C/C(=O)c2c(OC)ccc3ccccc23)cc(OC)c1OC` [3p]: the melting point was in the range of 113 to 114 °C. Further, in series [1] (Homo sapiens, MCF7, 48 h), the IC50 stood at 7.23 ± 0.38 µM.
In turn, `COc1ccccc1/C=C/C(=O)c1c(OC)ccc2ccccc12` [3q] returned a melting point of 124 to 126 °C. In addition, the IC50 in series [1] (Homo sapiens, MCF7, 48 h) turned out to be 7.67 ± 0.39 µM.
For `CCN(CC)c1ccc(/C=C/C(=O)c2c(OC)ccc3ccccc23)cc1` [3s], in that order: 142 to 144 °C and 7.62 ± 0.3 µM.
`COc1cccc(/C=C/C(=O)c2c(OC)ccc3ccccc23)c1` [3h] returned a melting point of 109 to 110 °C. The IC50 in series [1] (Homo sapiens, MCF7, 48 h) was 6.67 ± 0.25 µM.
`N.N.[Cl][Pt][Cl]` [Cisplatin, reference compound]: the IC50 in series [1] (48 h) came out at 15.2 ± 1.27 µM.
For the compound `COc1ccc2ccccc2c1C(=O)/C=C/c1cccc(F)c1` [3o], the melting point lay in the range of 142 to 143 °C. Moreover, the IC50 in series [1] (Homo sapiens, MCF7, 48 h) came out at 7.11 ± 0.47 µM.
As for `COc1ccc(/C=C/C(=O)c2c(OC)ccc3ccccc23)cc1O` [3a], in series [4], the “accumulation of cells at G2/M phase compared to control” value turned out to be 5.5 folds. Further, in series [4], the “cells in G1 phase” value came out at 0.04%. In series [4], the “cells in S phase” value is 15.41%. In addition, in series [4] (control 15.19%), the “cells in G2/M phase” value was found to be 84.55%. The concentration for half-maximal inhibition (IC50) in series [1] (Homo sapiens, MCF7, 48 h) was 1.42 ± 0.15 µM; in series [6] (purified tubulin, absorbance 340 nm, read-out: IC50 tubulin polymerisation inhibition) it was 8.4 µM; in series [7], 18.3 ± 1.3 µM. In series [5], this compound displayed a Q1 cell fraction of 1.95%. This compound had a Q4 cell fraction in series [5] of 71.7%. Also, in series [5] (control 0.68%), the “late/secondary cellular apoptosis (Q2)” value was determined as 6.34%. Further, the “early/primary apoptosis (Q3)” value in series [5] (control 1.85%) was determined as 20.0%. Also, the “inhibition of tubulin polymerisation” value in series [6] (3.0 µM) is given as 21%; in series [6] (6.0 µM), 41%; in series [6] (12.5 µM) it was 60%; in series [6] (25 µM), 82%.
As to `COc1ccc2ccccc2c1C(=O)/C=C/c1ccc(Br)cc1` [3b], the melting point was 127 to 129 °C. The half-maximal inhibitory concentration (IC50) in series [1] (Homo sapiens, MCF7, 48 h) was 4.1 ± 0.25 µM.
For `COc1ccc2ccccc2c1C(=O)/C=C/c1ccc(Cl)cc1` [3k], in that order: 142 to 143 °C and 4.74 ± 0.19 µM.
Compound `COc1ccc(/C=C/C(=O)c2c(OC)ccc3ccccc23)c(OC)c1OC` [3c] showed a melting point of 107 to 108 °C. For the same compound, the IC50 in series [1] (Homo sapiens, MCF7, 48 h) was more than 10 µM.
Take `COc1ccc2ccccc2c1C(=O)/C=C/c1cccc2ccccc12` [3e]: the melting point lay within 162 to 163 °C. Besides, the half-inhibitory concentration (IC50) in series [1] (Homo sapiens, MCF7, 48 h) came to 7.13 ± 0.33 µM.
Take `COc1ccc(/C=C/C(=O)c2c(OC)ccc3ccccc23)cc1N` [3t]: the IC50 in series [1] (Homo sapiens, MCF7, 48 h) is 2.75 ± 0.26 µM.
On to `COc1cc(OC)c(OC)cc1/C=C/C(=O)c1c(OC)ccc2ccccc12` [3l], for which the melting point is 147 to 149 °C. In addition, the IC50 in series [1] (Homo sapiens, MCF7, 48 h) is 7.68 ± 0.32 µM.

A word on the melting point: it is the temperature of the solid-liquid transition. For orientation: IC50 means the concentration that gives 50% inhibition.
